Laboratory results from ChEMBL document CHEMBL3758123, “Synthesis, biological evaluation and molecular modeling study of some new thiazolodiazepine analogs as CNS active agents” (Bioorg Med Chem Lett, 2016).
The source made the active and inactive calls. The calls are words filed in the database; no cut-off is given here.

Columns and labels:
[1] = tested on: Mus musculus; assay: Anticonvulsant activity in Swiss albino mouse assessed as picrotoxin-induced convulsions frequency time at 200 mg/kg, ip administered for 30 mins followed by picrotoxin challenge; type: functional
[2] = tested on: Mus musculus; assay: Anticonvulsant activity in Swiss albino mouse assessed as pentylenetetrazole induced convulsions frequency time at 200 mg/kg, ip administered for 20 mins followed by pentylenetetrazole challenge; type: functional
[3] = tested on: Mus musculus; assay: Toxicity in picrotoxin-induced Swiss albino mouse convulsion model assessed as time of death at 200 mg/kg, ip administered for 30 mins followed by picrotoxin challenge; type: organism-based; settings: in vivo, 0.5 h
[4] = tested on: Mus musculus; assay: Toxicity in pentylenetetrazole induced Swiss albino mouse convulsion model assessed as time of death at 200 mg/kg, ip administered for 20 mins followed by pentylenetetrazole challenge; type: organism-based; settings: in vivo
[5] = tested on: Mus musculus; assay: Anticonvulsant activity in Swiss albino mouse assessed as picrotoxin-induced onset of convulsion time at 200 mg/kg, ip administered for 30 mins followed by picrotoxin challenge; type: functional
[6] = tested on: Mus musculus; assay: Hypnotic activity in mouse assessed as quietness at 200 mg/kg, ip after 20 mins; type: functional, organism-based
[7] = tested on: Mus musculus; assay: Anticonvulsant activity in Swiss albino mouse assessed as pentylenetetrazole induced onset of convulsion time at 200 mg/kg, ip administered for 20 mins followed by pentylenetetrazole challenge; type: functional
[8] = tested on: Mus musculus; assay: Hypnotic activity in mouse assessed as loss of righting reflex and sleep at 100 mg/kg, ip after 2 mins; type: functional, organism-based
[9] = tested on: Mus musculus; assay: Protective index, ratio of TD50 for Swiss albino mouse assessed as motor performance to ED50 for protection against maximal electroshock-induced seizure in ip dosed Swiss albino mouse; type: functional
[10] = tested on: Mus musculus; assay: Hypnotic activity in mouse assessed as loss of righting reflex and sleep at 200 mg/kg, ip after 20 mins; type: functional, organism-based
[11] = tested on: Mus musculus; assay: Potency index, ratio of compound activity to sodium valproate activity against pentylenetetrazole-induced seizure in ip dosed Swiss albino mouse; type: functional
[12] = Therapeutic index, ratio of LD50 for ip dosed Swiss albino mouse to ED50 for protection against pentylenetetrazole induced seizure in ip dosed Swiss albino mouse; type: organism-based; settings: in vivo, read-out: Ratio LD50/ED50
[13] = tested on: Mus musculus; assay: Protective index, ratio of TD50 for Swiss albino mouse assessed as motor performance to ED50 for protection against pentylenetetrazole-induced seizure in ip dosed Swiss albino mouse; type: functional
[14] = tested on: Mus musculus; assay: Protective index, ratio of TD50 for Swiss albino mouse assessed as motor performance to ED50 for protection against picrotoxin-induced seizure in ip dosed Swiss albino mouse; type: functional
[15] = tested on: Mus musculus; assay: Hypnotic activity in mouse assessed as calmness at 100 mg/kg, ip after 20 mins; type: functional, organism-based
[16] = tested on: Mus musculus; assay: Anticonvulsant activity in Swiss albino mouse assessed as protection against maximal electroshock-induced seizures at 100 mg/kg, ip administered for 30 mins followed by electric shock treatment; type: functional
[17] = tested on: Mus musculus; assay: Anticonvulsant activity in Swiss albino mouse assessed as protection against pentylenetetrazole-induced seizure at 100 mg/kg, ip after 20 mins; type: functional
[18] = tested on: Mus musculus; assay: Hypnotic activity in mouse assessed as decrease in locomotors activity at 100 mg/kg, ip after 20 mins; type: functional, organism-based
[19] = tested on: Mus musculus; assay: Anticonvulsant activity in ip dosed Swiss albino mouse assessed as protection against maximal electroshock-induced seizures administered for 30 mins followed by electric shock treatment; type: functional; settings: 0.5 h
[20] = tested on: Mus musculus; assay: Hypnotic activity in mouse assessed as calmness at 200 mg/kg, ip after 20 mins; type: functional, organism-based
[21] = tested on: Mus musculus; assay: Hypnotic activity in mouse assessed as decrease in locomotors activity at 200 mg/kg, ip after 20 mins; type: functional, organism-based
[22] = tested on: Mus musculus; assay: Anticonvulsant activity in Swiss albino mouse assessed as protection against pentylenetetrazole-induced seizure at 200 mg/kg, ip administered for 20 mins followed by pentylenetetrazole challenge; type: functional
[23] = tested on: Mus musculus; assay: Hypnotic activity in mouse assessed as muscle relaxation at 200 mg/kg, ip after 15 mins; type: functional, organism-based
[24] = tested on: Mus musculus; assay: Anticonvulsant activity in Swiss albino mouse assessed as pentylenetetrazole induced onset of convulsion time at 100 mg/kg, ip administered for 20 mins followed by pentylenetetrazole challenge; type: functional
[25] = tested on: Mus musculus; assay: Anticonvulsant activity in Swiss albino mouse assessed as protection against maximal electroshock-induced seizures at 200 mg/kg, ip administered for 30 mins followed by electric shock treatment; type: functional
[26] = tested on: Mus musculus; assay: Anticonvulsant activity in Swiss albino mouse assessed as pentylenetetrazole induced convulsions frequency time at 100 mg/kg, ip administered for 20 mins followed by pentylenetetrazole challenge; type: functional
[27] = tested on: Mus musculus; assay: Toxicity in pentylenetetrazole induced Swiss albino mouse convulsion model assessed as time of death at 100 mg/kg, ip administered for 20 mins followed by pentylenetetrazole challenge; type: organism-based; settings: in vivo

Row | SMILES | Time [1] | Time [2] | Time [3] | Time [4] | Time [5] | Activity [6] | Time [7] | further results
1 | COc1ccc(/C=C2\CCN3C(C)=CSC3=NC2=O)cc1 | 9.5 min | 1.9 min | 20.7 min | 5.1 min | 11.3 min | Active | 2.3 min | –
2 | CCOC(=O)C1=C(C)N2CC/C(=C\c3ccc(OC)cc3)C(=O)N=C2S1 | 11.1 min | 2.3 min | 18.3 min | 3.7 min | 9.1 min | – | 2.2 min | –
3 | CC1=C(Br)SC2=NC(=O)CCCN21 | 5 min | – | 23.1 min | – | 13.5 min | – | – | Activity [8]: Active; Ratio TD50/ED50 [9]: 2.17; Activity [10]: Active; Ratio [11]: 4; selectivity ratio [12]: 5.71; Ratio TD50/ED50 [13]: 1.51; Ratio TD50/ED50 [14]: 1.31; Activity [15]: Active; Activity [16]: 100%; Activity [17]: 100%; Activity [18]: Active; ED50 [19]: 78 mg/kg
4 | COc1ccc(/C=C2\CCN3C=C(C)SC3=NC2=O)cc1 | 3 min | 5.3 min | 8.1 min | 27.3 min | 10.1 min | – | 4.1 min | Activity [20]: Active
5 | CC1=CN2CCCC(=O)N=C2S1 | 8.7 min | 3.1 min | 10.1 min | 5.2 min | 7.1 min | Active | 4.1 min | –
6 | CC1=CSC2=NC(=O)CCCN12 | 6.7 min | 3.1 min | 18.5 min | 4.1 min | 13.9 min | Active | 1.5 min | –
7 | CC1=C(Sc2ccccc2C(=O)O)SC2=NC(=O)CCCN21 | 7.3 min | 2.8 min | 12.3 min | 3.8 min | 7.8 min | – | 1.5 min | Activity [21]: Active
8 | CCOC(=O)C1=C(C)N2CCCC(=O)N=C2S1 | – | – | – | – | – | – | – | Activity [22]: 100%; Activity [23]: Active; Time [24]: 4.6 min; Ratio TD50/ED50 [9]: 2.22; Activity [20]: Active; Activity [25]: 100%; Ratio [11]: 2; selectivity ratio [12]: 5.28; Ratio TD50/ED50 [13]: 1.57; Ratio TD50/ED50 [14]: 1.35; Time [26]: 2 min; Activity [21]: Active; ED50 [19]: 90 mg/kg; Time [27]: 6.3 min
9 | CC1=CN2CC/C(=C\c3ccc(Br)cc3)C(=O)N=C2S1 | 6 min | 2.1 min | 14.3 min | 2.6 min | 8 min | – | 1.2 min | –
10 | CC1=CSC2=NC(=O)/C(=C/c3ccc(Br)cc3)CCN12 | 2.5 min | 2 min | 19.5 min | 3.6 min | 12.5 min | Active | 2.1 min | –
11 | CCOC(=O)C1=C(C)N2CC/C(=C\c3ccc(Br)cc3)C(=O)N=C2S1 | 6.1 min | 4.1 min | 11.6 min | 8.4 min | 8.1 min | – | 7.3 min | Activity [21]: Active
